Measurements reported in patent publication US11286234B2, “Phenyl urea derivatives as N-formyl peptide receptor modulators” (Allergan, Inc., priority 2016, dated 2022).

Assays:
FPR2 = molecular target: T1, FPR2 (Homo sapiens, UniProt P25090); test: Compound-induced calcium activity (FLIPR Tetra) in CHO-Gα16 cells stably expressing FPR2; type: cell-based; conditions: for EC50: calcium activity, tested 0.61 to 10,000 nM, read-out: FPR2 Ga16-CHO EC50; for Emax: efficacy value in brackets, read-out: FPR2 Ga16-CHO (% eff)
T1 construct: expressed in transfected cells
T1 sequence (P25090 1-351): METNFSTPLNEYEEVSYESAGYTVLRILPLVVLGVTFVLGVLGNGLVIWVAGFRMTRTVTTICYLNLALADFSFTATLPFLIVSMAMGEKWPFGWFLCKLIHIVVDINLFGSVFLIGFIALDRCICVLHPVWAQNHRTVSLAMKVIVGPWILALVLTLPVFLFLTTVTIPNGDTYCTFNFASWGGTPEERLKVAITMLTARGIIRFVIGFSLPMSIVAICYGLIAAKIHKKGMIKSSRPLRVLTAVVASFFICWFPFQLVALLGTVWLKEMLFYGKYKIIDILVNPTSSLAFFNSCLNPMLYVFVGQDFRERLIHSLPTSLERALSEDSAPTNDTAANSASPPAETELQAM
Method: (§1) CHO-Gα16 cells stably expressing FPR1 or FPR2 were cultured in: Ham's F12 nutrient media, 10% fetal bovine serum, 1% PSA (penicillin, streptomycin, amphotericin B antiobiotic/antimycotic), 400 μg/ml geneticin and 50 μg/ml hygromycin. In general, the day before the experiment, 18,000 cells/well were plated in a 384-well clear bottom poly-D-lysine coated plate. The following day the screening compound-induced calcium activity was assayed on the FLIPR^Tetra. The drug plates were prepared in 384-well microplates using the EP3 and the MultiPROBE robotic liquid handling systems. Compounds were tested at concentrations ranging from 0.61 to 10,000 nM. Results are expressed as EC50 (nM) and efficacy values.

FPR1 = molecular target: T2, FPR1 (Homo sapiens, UniProt P21462); test: Compound-induced calcium activity (FLIPR Tetra) in CHO-Gα16 cells stably expressing FPR1; type: cell-based; conditions: for EC50 / Emax: CHO-Gα16 cells stably expressing FPR1; for EC50: calcium activity, tested 0.61 to 10,000 nM, read-out: FPR1 Ga16-CHO EC50; for Emax: efficacy value in brackets, read-out: FPR1 Ga16-CHO (% eff); for Ratio FPR2:FPR1 (EC50): ratio of the EC50 for agonizing FPR2 to the EC50 for agonizing FPR1
T2 construct: expressed in transfected cells
T2 sequence (P21462 1-350): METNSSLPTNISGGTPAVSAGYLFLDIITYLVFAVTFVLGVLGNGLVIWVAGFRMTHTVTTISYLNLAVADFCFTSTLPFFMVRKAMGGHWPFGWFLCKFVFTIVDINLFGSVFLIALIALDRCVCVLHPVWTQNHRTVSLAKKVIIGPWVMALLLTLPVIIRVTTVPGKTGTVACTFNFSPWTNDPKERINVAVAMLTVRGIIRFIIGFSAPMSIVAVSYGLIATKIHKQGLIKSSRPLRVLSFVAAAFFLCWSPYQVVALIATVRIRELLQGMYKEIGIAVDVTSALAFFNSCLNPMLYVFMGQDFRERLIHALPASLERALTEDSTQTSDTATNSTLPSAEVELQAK
Method: as §1

COC(=O)C(CNC(=O)Nc1ccc(Cl)cc1)CC(C)C (centres unmarked) [Compound 3, Methyl 2-[({[(4-chlorophenyl)amino]carbonyl}amino)methyl]-4-methylpentanoate]
EC50 (FPR2): 1320 nM | Emax (FPR2): 95% | EC50 (FPR1): > 10000 nM | Emax (FPR1): 50% | Ratio FPR2:FPR1 (EC50) (FPR1): <1

O=C(Nc1ccc(Br)cc1)N[C@H]1CCCC[C@H]1C(=O)O (relative stereo) [Compound 19, (1R*,2S*)-2-(3-(4-Bromophenyl)ureido)cyclohexanecarboxylic acid]
EC50 (FPR2): 48 nM | Emax (FPR2): 102% | EC50 (FPR1): 14 nM | Emax (FPR1): 97% | Ratio FPR2:FPR1 (EC50) (FPR1): 3.4

CC(C)CC(CNC(=O)Nc1ccc(Br)cc1)C(=O)NCC(=O)OC(C)(C)C (centres unmarked) [Compound 31, t-Butyl ({2-[({[(4 bromophenyl)amino]carbonyl}amino)methyl]-4-methylpentanoyl}amino)acetate]
EC50 (FPR2): 1500 nM | Emax (FPR2): 18% | EC50 (FPR1): 552 nM | Emax (FPR1): 98% | Ratio FPR2:FPR1 (EC50) (FPR1): 2.7

COC(=O)C(CNC(=O)Nc1ccc(OC)cc1)CC(C)C (centres unmarked) [Compound 5, Methyl 2-[({[(4-methoxyphenyl)amino]carbonyl}amino)methyl]-4-methylpentanoate]
EC50 (FPR2): 541 nM | Emax (FPR2): 42% | EC50 (FPR1): > 73000 nM | Emax (FPR1): 65% | Ratio FPR2:FPR1 (EC50) (FPR1): <1
